Test results: ChEMBL document CHEMBL1146888, “Synthesis and cytotoxicity of leinamycin antibiotic analogues” (J Med Chem, 2006)

Columns and labels:
HeLa [1] = assay: Cytotoxicity against human HeLa3 cell line by MTT assay; format: functional, cell-based
HeLa [2] = assay: Cytotoxicity against human HeLa3 cell line in presence of ethanethiol by MTT assay; format: functional, cell-based

O=C1CC(CCC#CCOC2CCCCO2)SS1 (stereo not drawn)
IC50 (HeLa [1]): 124 µM | IC50 (HeLa [2]): 20.1 µM

Cc1cn([C@H]2C[C@H](O[Si](C)(C)C(C)(C)C)[C@@H](C3CC(=O)S[S+]3[O-])O2)c(=O)[nH]c1=O (stereo partly drawn)
IC50 (HeLa [1]): 43.1 µM | IC50 (HeLa [2]): 6.61 µM

Cc1cn([C@H]2C[C@H](O)[C@@H](C3CC(=O)SS3)O2)c(=O)[nH]c1=O (stereo partly drawn)
IC50 (HeLa [1]): 299 µM | IC50 (HeLa [2]): 54.6 µM

O=C1CC(CCc2ccccc2)SS1 (stereo not drawn)
IC50 (HeLa [1]): 258 µM | IC50 (HeLa [2]): 65.5 µM

CC(C)(C)[Si](C)(C)O[C@@H]1[C@H](O[Si](C)(C)C(C)(C)C)[C@@H](C2CC(=O)SS2)O[C@H]1n1ccc(=O)[nH]c1=O (stereo partly drawn)
IC50 (HeLa [1]): 10 µM | IC50 (HeLa [2]): 7.84 µM

Cc1cn([C@H]2C[C@H](O)[C@@H](C3CC(=O)S[S+]3[O-])O2)c(=O)[nH]c1=O (stereo partly drawn)
IC50 (HeLa [1]): 119 µM | IC50 (HeLa [2]): 29.7 µM

O=C1CC([C@H]2O[C@@H](n3ccc(=O)[nH]c3=O)[C@H](O)[C@@H]2O)[S+]([O-])S1 (stereo partly drawn)
IC50 (HeLa [1]): 50.7 µM | IC50 (HeLa [2]): 7.01 µM

CC(C)(C)[Si](C)(C)O[C@@H]1[C@H](O[Si](C)(C)C(C)(C)C)[C@@H](C2CC(=O)S[S+]2[O-])O[C@H]1n1ccc(=O)[nH]c1=O (stereo partly drawn)
IC50 (HeLa [1]): 3.68 µM | IC50 (HeLa [2]): 2.67 µM

O=C1CC(CCc2ccccc2)[S+]([O-])S1 (stereo not drawn)
IC50 (HeLa [1]): 68.4 µM | IC50 (HeLa [2]): 24.8 µM

CC1(C)O[C@H]([C@H]2COC(C)(C)O2)[C@@H](C2CC(=O)S[S+]2[O-])O1 (stereo partly drawn)
IC50 (HeLa [1]): 18.2 µM | IC50 (HeLa [2]): 12.6 µM

Cc1cn([C@H]2C[C@H](O[Si](C)(C)C(C)(C)C)[C@@H](C3CC(=O)SS3)O2)c(=O)[nH]c1=O (stereo partly drawn)
IC50 (HeLa [2]): 16.7 µM

O=C1CC(CCC#CCOC2CCCCO2)[S+]([O-])S1 (stereo not drawn)
IC50 (HeLa [1]): 62.9 µM | IC50 (HeLa [2]): 8.33 µM

COc1cccc2c1C(=O)c1c(O)c3c(c(O)c1C2=O)C[C@@](O)(C(C)=O)C[C@@H]3OC1C[C@H](N)[C@H](O)[C@H](C)O1 (single isomer, unassigned) [DAUNORUBICIN]
IC50 (HeLa [1]): 2.96 µM

O=C1CC([C@H]2O[C@@H](n3ccc(=O)[nH]c3=O)[C@H](O)[C@@H]2O)SS1 (stereo partly drawn)
IC50 (HeLa [1]): 62.2 µM | IC50 (HeLa [2]): 20.7 µM

CC1(C)O[C@H]([C@H]2COC(C)(C)O2)[C@@H](C2CC(=O)SS2)O1 (stereo partly drawn)
IC50 (HeLa [1]): 35.9 µM | IC50 (HeLa [2]): 16.9 µM
